Assay results: patent publication US8436011B2, “Pyridinopyridinone derivatives, preparation thereof and therapeutic use thereof” (Sanofi, priority 2008, dated 2013)
Where a name gives a salt, the structure may show the parent alone.

Going from `CCN1CCOCC1CNC(=O)Cc1ccc(-c2ccc3c(=O)c(C(=O)NC)c(N)n(CC)c3n2)cn1` (stereo not shown) (as salt: HCl) [compound 23, 2-amino-1-ethyl-7-[6-(2-{[(4-ethylmorpholin-3-yl)methyl]amino}-2-oxoethyl)pyrid-3-yl]-N-methyl-4-oxo-1,4-dihydro-1,8-naphthyridine-3-carboxamide] to `CCN1CCCC1CNC(=O)Cc1ccc(-c2ccc3c(=O)c(C(=O)NC)c(N)n(CC)c3n2)cc1Cl` (stereo not shown) (as salt: HCl) [compound 57, 2-amino-7-[3-chloro-4-(2-{[(1-ethylpyrrolidin-2-yl)methyl]amino}-2-oxoethyl)phenyl]-1-ethyl-N-methyl-4-oxo-1,4-dihydro-1,8-naphthyridine-3-carboxamide], the melting point rises from 199 °C to 228 °C.

Going from `CCn1c(N)c(C(=O)NC)c(=O)c2ccc(-c3ccc(CC(=O)NCCc4cccnc4)cc3)nc21` (as salt: HCl) [compound 37, 2-amino-1-ethyl-N-methyl-4-oxo-7-(4-{2-oxo-2-[(2-pyrid-3-ylethyl)amino]-ethyl}phenyl)-1,4-dihydro-1,8-naphthyridine-3-carboxamide] to `CCn1c(N)c(C(=O)NC)c(=O)c2ccc(-c3ccc(CC(=O)NCCc4ccccc4)cc3)nc21`, the melting point rises from 222 °C to 270 °C.

`CCn1c(N)c(C(=O)NC)c(=O)c2ccc(-c3ccc(CC(=O)Nc4ccccn4)cn3)nc21` (as salt: HCl) [compound 19, 2-amino-1-ethyl-N-methyl-4-oxo-7-{5-[2-oxo-2-(pyrid-2-ylamino)-ethyl]pyrid-2-yl}-1,4-dihydro-1,8-naphthyridine-3-carboxamide] and `CCn1c(N)c(C(=O)NC)c(=O)c2ccc(-c3ccc(CC(=O)NCc4ccccn4)cc3)nc21` (as salt: HCl) [compound 8, 2-amino-1-ethyl-N-methyl-4-oxo-7-(4-{2-oxo-2-[(pyrid-2-ylmethyl)amino]-ethyl}phenyl)-1,4-dihydro-1,8-naphthyridine-3-carboxamide] cannot be ordered by melting point: 268 to 288 °C for the first, 268 °C for the second.

Going from `CCn1c(N)c(C(=O)NC)c(=O)c2ccc(-c3ccc(CC(=O)Nc4ccccc4)cc3)nc21` to `CCn1c(N)c(C(=O)NC)c(=O)c2ccc(-c3ccc(CC(=O)Nc4ccncc4)cc3)nc21` (as salt: HCl), the melting point falls from 299 °C to 250 °C.

First: CCn1c(N)c(C(=O)NC)c(=O)c2ccc(-c3ccc(CC(=O)NCCc4ccccn4)cc3)nc21 (as salt: HCl)
Second: CCn1c(N)c(C(=O)NC)c(=O)c2ccc(-c3ccc(CC(=O)NCCOC)cc3)nc21 [compound 9, 2-amino-1-ethyl-7-(4-{2-[(2-methoxyethyl)amino]-2-oxoethyl}phenyl)-N-methyl-4-oxo-1,4-dihydro-1,8-naphthyridine-3-carboxamide]
The melting point of the first is lower: 248 °C for the first, 262 °C for the second.

Compared with `CCN1CCCC1CN(C)C(=O)Cc1ccc(-c2ccc3c(=O)c(C(=O)NC)c(N)n(CC)c3n2)cc1` (stereo not shown), `CCN1CCCC1CNC(=O)CCc1ccc(-c2ccc3c(=O)c(C(=O)NC)c(N)n(CC)c3n2)cc1` (stereo not shown) [compound 46, 2-amino-1-ethyl-7-[4-(3-{[(1-ethylpyrrolidin-2-yl)methyl]amino}-3-oxopropyl)phenyl]-N-methyl-4-oxo-1,4-dihydro-1,8-naphthyridine-3-carboxamide] is higher in melting point: 138 °C for the first, 218 °C for the second.

First: CCn1c(N)c(C(=O)NC)c(=O)c2ccc(-c3ccc(CC(=O)NCCCN4CCOCC4)cc3)nc21 (as salt: HCl) [compound 38, 2-amino-1-ethyl-N-methyl-7-(4-{2-[(3-morpholin-4-ylpropyl)amino]-2-oxoethyl}phenyl)-4-oxo-1,4-dihydro-1,8-naphthyridine-3-carboxamide]
Second: CCn1c(N)c(C(=O)NC)c(=O)c2ccc(-c3ccc(CC(=O)NCCN4CCOCC4)cc3)nc21 (as salt: HCl) [compound 18, 2-amino-1-ethyl-N-methyl-7-(4-{2-[(2-morpholin-4-ylethyl)amino]-2-oxoethyl}phenyl)-4-oxo-1,4-dihydro-1,8-naphthyridine-3-carboxamide]
The melting point of the first is lower: 196 °C for the first, 220 to 222 °C for the second.

First: CCn1c(N)c(C(=O)NC)c(=O)c2ccc(-c3ccc(CC(=O)NC[C@H]4CCCN4CCF)cn3)nc21 (as salt: HCl) [compound 29, 2-amino-1-ethyl-7-{5-[2-({[(2R)-1-(2-fluoroethyl)pyrrolidin-2-yl]methyl}-amino)-2-oxoethyl]pyrid-2-yl}-N-methyl-4-oxo-1,4-dihydro-1,8-naphthyridine-3-carboxamide]
Second: CCn1c(N)c(C(=O)NC)c(=O)c2ccc(-c3ccc(CC(=O)NC[C@H]4CCCN4CCF)cc3)nc21 (as salt: hydrochloride) [compound 27, 2-amino-1-ethyl-7-{4-[2-({[(2R)-1-(2-fluoroethyl)pyrrolidin-2-yl]methyl}-amino)-2-oxoethyl]phenyl}-N-methyl-4-oxo-1,4-dihydro-1,8-naphthyridine-3-carboxamide]
The melting point of the first is higher: 194 °C for the first, 180 °C for the second.

First: CCN1CCC[C@@H]1CNC(=O)Cc1nc(-c2ccc3c(=O)c(C(=O)NC)c(N)n(CC)c3n2)cs1 [compound 55, 2-amino-1-ethyl-7-{2-[2-({[(2R)-1-ethylpyrrolidin-2-yl]methyl}amino)-2-oxoethyl]-1,3-thiazol-4-yl}-N-methyl-4-oxo-1,4-dihydro-1,8-naphthyridine-3-carboxamide]
Second: CCN1CCCC1CNC(=O)Cc1ccc(-c2ccc3c(=O)c(C(=O)NC)c(N)n(CC)c3n2)cc1C (stereo not shown) [compound 59, 2-amino-7-[3-methyl-4-(2-{[(1-ethylpyrrolidin-2-yl)methyl]amino}-2-oxoethyl)phenyl]-1-ethyl-N-methyl-4-oxo-1,4-dihydro-1,8-naphthyridine-3-carboxamide]
The melting point of the first is lower: 214 °C for the first, 277 °C for the second.

Compared with `CCn1c(N)c(C(=O)NC)c(=O)c2ccc(-c3ccc(CC(=O)NCC4COCCN4C(C)C)cc3)nc21` (stereo not shown) (as salt: HCl) [compound 32, 2-amino-1-ethyl-N-methyl-7-{4-[2-({[4-(1-methylethyl)morpholin-3-yl]-methyl}amino)-2-oxoethyl]phenyl}-4-oxo-1,4-dihydro-1,8-naphthyridine-3-carboxamide], `CCN1CCC[C@@H]1CNC(=O)Cc1ccc(-c2ccc3c(=O)c(C(=O)NC)c(N)n(CC(C)C)c3n2)cc1` [compound 53, 2-amino-7-{4-[2-({[(2R)-1-ethylpyrrolidin-2-yl]methyl}amino)-2-oxoethyl]-phenyl}-N-methyl-1-(2-methylpropyl)-4-oxo-1,4-dihydro-1,8-naphthyridine-3-carboxamide] is higher in melting point: 192 °C for the first, 233 °C for the second.

For `CCn1c(N)c(C(=O)NC)c(=O)c2ccc(-c3ccc(CC(=O)NC[C@H]4CCCN4CC(F)(F)F)cc3)nc21` [compound 30, 2-amino-1-ethyl-N-methyl-4-oxo-7-{4-[2-oxo-2-({[(2R)-1-(2,2,2-trifluoroethyl)pyrrolidin-2-yl]methyl}amino)ethyl]phenyl}-1,4-dihydro-1,8-naphthyridine-3-carboxamide], the melting point was greater than 260 °C.
`CCn1c(N)c(C(=O)NC)c(=O)c2ccc(-c3ccc(CC(=O)NC[C@H]4CCCN4S(C)(=O)=O)cc3)nc21` [compound 28, 2-amino-1-ethyl-N-methyl-7-{4-[2-({[(2R)-1-(methylsulfonyl)pyrrolidin-2-yl]methyl}amino)-2-oxoethyl]phenyl}-4-oxo-1,4-dihydro-1,8-naphthyridine-3-carboxamide] showed a melting point greater than 260 °C.
